Laboratory results taken from patent US20060094695A1, “Hypoestoxides, derivatives and agonists thereof for use in the prophylaxis and treatment of obesity” (Paraquest, Inc., priority 2004, published 2006).

Columns and labels:
C57BL/6J-Lep^ob mice [1] = assay: Prevention of Obesity in Mice (Table 1); format: in vivo; settings: 4-week-old female mice, in g
Description: The ability of hypoestoxides and hypoestes rosea dried leaf powder to prevent obesity was studied. Hypoestoxide and hypoestes rosea dried leaf powder was administered to C57BL/6J-Lep^ob mice. The mice are homozygous for the obese spontaneous mutation and are first recognizable as such at approximately 4 weeks of age. At 4 weeks, the mice weigh 20-25 grams, and may reach three to four times the weight of wild-type mice. Three 4-week-old female mice were placed in each of four treatment conditions, for a total of twelve mice in the study: (i) control; (ii) hypoestoxide was administered orally at a dose of 10 mg/kg; (iii) hypoestoxide was administered orally at a dose of 100 mg/kg; or (iv) hypoestes dried leaf powder was administered orally at a dose of 100 mg/kg. Treatments were administered once a day and the study continued for 21 days.

C57BL/6J-Lep^ob mice [2] = assay: Treatment of Obesity in Mice (Table 2); format: in vivo; settings: 10 mg/kg orally once a day for 50 days, approx. 4 months old, one mouse
Description: Treatment of obesity with hypoestoxide and hypoestes rosea dried leaf powder was also studied. Hypoestoxide and hypoestes rosea dried leaf powder was administered to C57BL/6J-Lep^ob mice. The mice were treated at approximately 4 months of age at a weight of approximately 50 grams. One mouse was placed in each of three treatment conditions: (i) control; (ii) hypoestoxide was administered orally at a dose of 10 mg/kg; or (iii) hypoestes dried leaf powder was administered orally at a dose of 100 mg/kg. Treatments were administered once a day, with hypoestoxide treatment lasting 50 days and hypoestes dried leaf powder treatment lasting 21 days.

SMILES: C=C1C(=O)C[C@H]2C[C@@H]3O[C@@]3(C)CC[C@@H]3O[C@@]3(C)C[C@@H](OC(C)=O)[C@H]1C2(C)C [Hypoestoxide, hypoestoxide]
- weight of mice, Prevention of Obesity in Mice (C57BL/6J-Lep^ob mice [1]; 10 mg/kg orally once a day for 21 days): 41.6 ± 2.0
- weight of mice, Prevention of Obesity in Mice (C57BL/6J-Lep^ob mice [1]; 100 mg/kg orally once a day for 21 days): 40.0 ± 1.5
- weight of mice, Prevention of Obesity in Mice (C57BL/6J-Lep^ob mice [1]; day 7, 10 mg/kg orally once a day for 21 days): 19.6 ± 2.0
- weight of mice, Prevention of Obesity in Mice (C57BL/6J-Lep^ob mice [1]; day 7, 100 mg/kg orally once a day for 21 days): 20.9 ± 1.2
- weight of mice, Prevention of Obesity in Mice (C57BL/6J-Lep^ob mice [1]; day 14, 10 mg/kg orally once a day for 21 days): 25.4 ± 1.6
- weight of mice, Prevention of Obesity in Mice (C57BL/6J-Lep^ob mice [1]; day 14, 100 mg/kg orally once a day for 21 days): 23.8 ± 0.6
- weight of mice, Prevention of Obesity in Mice (C57BL/6J-Lep^ob mice [1]; day 21, 10 mg/kg orally once a day for 21 days): 27.5 ± 1.5
- weight of mice, Prevention of Obesity in Mice (C57BL/6J-Lep^ob mice [1]; day 21, 100 mg/kg orally once a day for 21 days): 27.0 ± 0.8
- weight of mice, Prevention of Obesity in Mice (C57BL/6J-Lep^ob mice [1]; day 28, 10 mg/kg orally once a day for 21 days): 28.8 ± 2.3
- weight of mice, Prevention of Obesity in Mice (C57BL/6J-Lep^ob mice [1]; day 28, 100 mg/kg orally once a day for 21 days): 26.4 ± 2.2
- weight of mice, Prevention of Obesity in Mice (C57BL/6J-Lep^ob mice [1]; day 35, 10 mg/kg orally once a day for 21 days): 30.3 ± 3.2
- weight of mice, Prevention of Obesity in Mice (C57BL/6J-Lep^ob mice [1]; day 35, 100 mg/kg orally once a day for 21 days): 29.0 ± 2.9
- weight of mice, Prevention of Obesity in Mice (C57BL/6J-Lep^ob mice [1]; day −1 (before treatment), group 10 mg/kg orally once a day for 21 days): 21.0 ± 1.4
- weight of mice, Prevention of Obesity in Mice (C57BL/6J-Lep^ob mice [1]; day −1 (before treatment), group 100 mg/kg orally once a day for 21 days): 24.3 ± 1.1
- weight of mouse, Treatment of Obesity in Mice (C57BL/6J-Lep^ob mice [2]; day 7): 53 g
- weight of mouse, Treatment of Obesity in Mice (C57BL/6J-Lep^ob mice [2]; day 14): 51.5 g
- weight of mouse, Treatment of Obesity in Mice (C57BL/6J-Lep^ob mice [2]; day 21): 51 g
- weight of mouse, Treatment of Obesity in Mice (C57BL/6J-Lep^ob mice [2]; day 28): 50.4 g
- weight of mouse, Treatment of Obesity in Mice (C57BL/6J-Lep^ob mice [2]; day 35): 50 g
- weight of mouse, Treatment of Obesity in Mice (C57BL/6J-Lep^ob mice [2]; day 160): 69.8 g
- weight of mouse, Treatment of Obesity in Mice (C57BL/6J-Lep^ob mice [2]; day −1 (before treatment)): 53 g
